In PubChem BioAssay AID328 (DTP/NCI, 2004):
Where “and” joins values, the source holds several entries; their conditions need not be identical. Identical values can stand only once. Toxic doses and inconclusive results are not listed.

System: BDF1 mice, P388 leukemia ip, median survival T/C
Experiment: NCI In Vivo Anticancer Drug Screen. Data for tumor model P388 Leukemia (intraperitoneal) in B6D2F1 (BDF1) mice
Conditions: endpoint: median survival time, higher = longer survival
Protocol: The antitumor activity of compounds was measured in mice bearing transplantable tumors. Survival or tumor size were measured and the results are expressed as the measurement made in the treated group (T) divided by the measurement made in the vehicle treated control group (C). The tumor model used in this assay is P388 Leukemia (intraperitoneal) in B6D2F1 (BDF1) mice

[1] = dose: 50.0 mg/kg/injection, schedule: Q01DX009 (ip), vehicle: saline with Tween-80
[2] = dose: 100.0 mg/kg/injection, schedule: Q01DX009 (ip), vehicle: saline with Tween-80
[3] = dose: 1.0 mg/kg/injection, schedule: Q01DX009 (ip), vehicle: saline
[4] = dose: 5.0 mg/kg/injection, schedule: Q01DX009 (ip), vehicle: Klucel (hydroxypropylcellulose) (HPC)
[5] = dose: 25.0 mg/kg/injection, schedule: Q01DX009 (ip), vehicle: saline with Tween-80
[6] = dose: 200.0 mg/kg/injection, schedule: Q01DX009 (ip), vehicle: saline with Tween-80
[7] = dose: 5.0 mg/kg/injection, schedule: Q01DX010 (ip), vehicle: saline
[8] = dose: 10.0 mg/kg/injection, schedule: Q01DX010 (ip), vehicle: saline
[9] = dose: 100.0 mg/kg/injection, schedule: Q04DX003 (ip), vehicle: saline with Tween-80
[10] = dose: 200.0 mg/kg/injection, schedule: Q04DX003 (ip), vehicle: saline with Tween-80
[11] = dose: 400.0 mg/kg/injection, schedule: Q01DX009 (ip), vehicle: saline with Tween-80
[12] = dose: 400.0 mg/kg/injection, schedule: Q04DX003 (ip), vehicle: saline with Tween-80

## Nc1ncc([N+](=O)[O-])c(Cl)n1
[1]
  T/C: 103 % of control
[2]
  T/C: 111 % of control

## O=C(NCC(S)c1ccc(Cl)cc1)C(F)(F)F (stereo not given)
dose: 6.25 mg/kg/injection, schedule: Q04DX003 (ip), vehicle: saline with Tween-80
  T/C: 100 % of control
dose: 12.5 mg/kg/injection, schedule: Q04DX003 (ip), vehicle: saline with Tween-80
  T/C: 100 % of control
dose: 25.0 mg/kg/injection, schedule: Q04DX003 (ip), vehicle: saline with Tween-80
  T/C: 118 % of control

## [CH3][Hg][Cl]
dose: 0.25 mg/kg/injection, schedule: Q01DX009 (ip), vehicle: saline
  T/C: 109 % of control
dose: 0.5 mg/kg/injection, schedule: Q01DX009 (ip), vehicle: saline
  T/C: 100 % of control
[3]
  T/C: 100 % of control

## COc1ccc(/C=C/c2ccc3ccccc3[n+]2C)c(OC)c1OC
[4]
  T/C: 109 % of control

## NNc1ncnc2c1ncn2C1OC(CO)C(O)C1O (stereo not given)
dose: 7.5 mg/kg/injection, schedule: Q04DX003 (ip), vehicle: saline
  T/C: 90 % of control
dose: 12.5 mg/kg/injection, schedule: Q01DX009 (ip), vehicle: saline
  T/C: 109 % of control
dose: 15.0 mg/kg/injection, schedule: Q01DX010 (ip), vehicle: saline
  T/C: 113 % of control
dose: 15.0 mg/kg/injection, schedule: Q04DX003 (ip), vehicle: saline
  T/C: 105 % of control
dose: 25.0 mg/kg/injection, schedule: Q01DX009 (ip), vehicle: saline
  T/C: 109 % of control
dose: 30.0 mg/kg/injection, schedule: Q04DX003 (ip), vehicle: saline
  T/C: 105 % of control
dose: 50.0 mg/kg/injection, schedule: Q01DX009 (ip), vehicle: saline
  T/C: 113 % of control
dose: 60.0 mg/kg/injection, schedule: Q01DX010 (ip), vehicle: saline
  T/C: 154 % of control
dose: 60.0 mg/kg/injection, schedule: Q04DX003 (ip), vehicle: saline
  T/C: 120 % of control
dose: 120.0 mg/kg/injection, schedule: Q04DX003 (ip), vehicle: saline
  T/C: 105 % of control

## CCOC(=O)C1CN(c2ccccc2)C(=O)C1=O (stereo not given)
dose: 50.0 mg/kg/injection, schedule: Q01DX009 (ip), vehicle: Klucel (hydroxypropylcellulose) (HPC)
  T/C: 112 % of control
dose: 100.0 mg/kg/injection, schedule: Q01DX009 (ip), vehicle: Klucel (hydroxypropylcellulose) (HPC)
  T/C: 118 % of control
dose: 200.0 mg/kg/injection, schedule: Q01DX009 (ip), vehicle: Klucel (hydroxypropylcellulose) (HPC)
  T/C: 110 % of control
dose: 400.0 mg/kg/injection, schedule: Q01DX009 (ip), vehicle: Klucel (hydroxypropylcellulose) (HPC)
  T/C: 110 % of control

## CC1CCN(SSc2nc3ccccc3s2)CC1
[1]
  T/C: 110 % of control
[2]
  T/C: 110 % of control

## CC(C)(C)c1ccc(/C(N)=N/O)cc1
dose: 50.0 mg/kg/injection, schedule: Q01DX005 (ip), vehicle: saline with Tween-80
  T/C: 92 % of control
dose: 100.0 mg/kg/injection, schedule: Q01DX005 (ip), vehicle: saline with Tween-80
  T/C: 101 % of control

## Cc1ccc(N2CCN(C3=CCC(C(C)C)CC3)CC2)cc1Cl (stereo not given)
dose: 100.0 mg/kg/injection, schedule: Q01DX001 (ip), vehicle: saline with Tween-80
  T/C: 105 % of control
dose: 200.0 mg/kg/injection, schedule: Q01DX001 (ip), vehicle: saline with Tween-80
  T/C: 105 % of control

## Cc1c[n+]2c3ccccc3c3ccccc3c2s1
dose: 1.5 mg/kg/injection, schedule: Q01DX009 (ip), vehicle: Klucel (hydroxypropylcellulose) (HPC)
  T/C: 95 % of control
dose: 2.5 mg/kg/injection, schedule: Q01DX009 (ip), vehicle: Klucel (hydroxypropylcellulose) (HPC)
  T/C: 100 % of control
dose: 3.0 mg/kg/injection, schedule: Q01DX009 (ip), vehicle: Klucel (hydroxypropylcellulose) (HPC)
  T/C: 90 % of control
[4]
  T/C: 122 % of control
dose: 6.0 mg/kg/injection, schedule: Q01DX009 (ip), vehicle: Klucel (hydroxypropylcellulose) (HPC)
  T/C: 86 % of control
dose: 10.0 mg/kg/injection, schedule: Q01DX009 (ip), vehicle: Klucel (hydroxypropylcellulose) (HPC)
  T/C: 118 % of control
dose: 10.0 mg/kg/injection, schedule: Q04DX003 (ip), vehicle: Klucel (hydroxypropylcellulose) (HPC)
  T/C: 118 % of control
dose: 20.0 mg/kg/injection, schedule: Q04DX003 (ip), vehicle: Klucel (hydroxypropylcellulose) (HPC)
  T/C: 95 % of control
dose: 80.0 mg/kg/injection, schedule: Q04DX003 (ip), vehicle: Klucel (hydroxypropylcellulose) (HPC)
  T/C: 90 % of control
dose: 200.0 mg/kg/injection, schedule: Q04DX003 (ip), vehicle: Klucel (hydroxypropylcellulose) (HPC)
  T/C: 90 % of control

## Cn1c(=O)oc2ccc(Cl)cc21
[5]
  T/C: 122 % of control
[1]
  T/C: 115 % of control
[6]
  T/C: 91 % of control

## Cc1cc(N(CCCl)CCCl)ccc1N=Nc1ccccc1C(=O)O
[7]
  T/C: 150 % of control
[8]
  T/C: 175 % of control
dose: 20.0 mg/kg/injection, schedule: Q01DX010 (ip), vehicle: saline
  T/C: 210 % of control
dose: 40.0 mg/kg/injection, schedule: Q01DX010 (ip), vehicle: saline
  T/C: 95 % of control

## CN(C)CC(=O)N/N=C\c1ccc([N+](=O)[O-])s1
dose: 25.0 mg/kg/injection, schedule: Q04DX003 (ip), vehicle: saline
  T/C: 87 % of control
dose: 50.0 mg/kg/injection, schedule: Q04DX003 (ip), vehicle: saline
  T/C: 87 % of control
dose: 100.0 mg/kg/injection, schedule: Q04DX003 (ip), vehicle: saline
  T/C: 91 % of control

## CNc1nc(N)nc(Nc2ccc(I)cc2)c1N=O
[2]
  T/C: 90 % of control and 100 % of control
[9]
  T/C: 95 % of control
[6]
  T/C: 90 % of control and 91 % of control
[10]
  T/C: 112 % of control
[11]
  T/C: 87 % of control
[12]
  T/C: 91 % of control

## O=C(NS(=O)(=O)c1ccc(Cl)cc1)c1ccccc1
dose: 12.5 mg/kg/injection, schedule: Q01DX009 (ip), vehicle: saline with Tween-80
  T/C: 99 % of control
[5]
  T/C: 100 % of control and 109 % of control
[1]
  T/C: 103 % of control and 120 % of control
[2]
  T/C: 100 % of control
[6]
  T/C: 90 % of control

## CCCCCCCCCCCCCCCCCC[N+](C)(C)C (tested in a mixture with another compound)
[3]
  T/C: 109 % of control
dose: 2.0 mg/kg/injection, schedule: Q01DX009 (ip), vehicle: saline
  T/C: 113 % of control
dose: 4.0 mg/kg/injection, schedule: Q01DX009 (ip), vehicle: saline
  T/C: 118 % of control

## O=S1(=O)C=C(c2ccccc2)C(c2ccccc2)=C1
dose: 22.0 mg/kg/injection, schedule: Q04DX003 (ip), vehicle: saline
  T/C: 104 % of control
dose: 33.0 mg/kg/injection, schedule: Q04DX003 (ip), vehicle: saline
  T/C: 113 % of control
dose: 50.0 mg/kg/injection, schedule: Q04DX003 (ip), vehicle: saline sonified
  T/C: 118 % of control
dose: 75.0 mg/kg/injection, schedule: Q04DX003 (ip), vehicle: saline sonified
  T/C: 150 % of control
dose: 75.0 mg/kg/injection, schedule: Q04DX003 (ip), vehicle: saline
  T/C: 122 % of control

## CC12CCC(Cl)CC1=CCC1C2CCC2(C)C1CCCN2CCCl (stereo not given)
dose: 12.5 mg/kg/injection, schedule: Q01DX001 (ip), vehicle: saline with Tween-80
  T/C: 105 % of control
dose: 12.5 mg/kg/injection, schedule: Q01DX001 (ip), vehicle: saline
  T/C: 102 % of control
dose: 25.0 mg/kg/injection, schedule: Q01DX001 (ip), vehicle: saline with Tween-80
  T/C: 113 % of control
dose: 25.0 mg/kg/injection, schedule: Q01DX001 (ip), vehicle: saline
  T/C: 117 % of control

## COC1CC(N=[N+]=[N-])C(O)C(C)O1 (stereo not given)
[9]
  T/C: 118 % of control and 101 % of control
[10]
  T/C: 110 % of control and 101 % of control
[12]
  T/C: 118 % of control and 93 % of control
dose: 500.0 mg/kg/injection, schedule: Q04DX003 (ip), vehicle: saline with Tween-80
  T/C: 109 % of control

## c1ccc(COCC[P+](c2ccccc2)(c2ccccc2)c2ccccc2)cc1
dose: 2.5 mg/kg/injection, schedule: Q01DX010 (ip), vehicle: saline
  T/C: 90 % of control
[7]
  T/C: 100 % of control
[8]
  T/C: 113 % of control

## O=C(/C=C/c1ccc([N+](=O)[O-])cc1)c1ccc(Cl)cc1
[2]
  T/C: 90 % of control
[9]
  T/C: 95 % of control
[6]
  T/C: 90 % of control
[10]
  T/C: 90 % of control
[11]
  T/C: 100 % of control
[12]
  T/C: 100 % of control
